Columns and labels:
[1] = test system: collagen-induced aggregation in rabbit platelet; assay: Inhibition effect on collagen-induced aggregation in rabbit platelet; type: cell-based; conditions: rabbit platelet (PRP); for inhibition at 100 µM / inhibition at 10 µM / inhibition at 1 µM / inhibition at 0.01 µM: Oryctolagus cuniculus, Platelet; for inhibition at 100 µM: 10^-4 M test compound solution; for inhibition at 0.01 µM: 10^-8 M test compound solution
Method: (§1) The aggregation inhibitory activity was determined using an AG-II type aggregometer (made by Bryston Manufacturing Co.). A blood sample was withdrawn from rabbits as a mixture of sodium citrate and whole blood in a proportion of 1 : 9 by volume and centrifuged at 1000 rpm for 10 minutes to obtain a platelet rich plasma (PRP). The resulting PRP was separated, and the remaining blood sample was further centrifuged at 3000 rpm for 15 minutes to obtain a platelet poor plasma (PPP).
(§2) The number of platelets in the PRP was counted in accordance with the Brecher-Clonkite Method, and the PRP was diluted with the PPP to prepare a PRP sample containing platelets in an amount of 300,000/[…] for an adenosine diphosphate (ADP)-induced aggregation test and a PRP sample containing platelets in an amount of 450,000/[…] for a collagen-induced aggregation test.
(§3) 0.01 ml of a solution of a test compound having a predetermined concentration (as shown in the Tables below) was then added to 0.6 ml of the PRP sample obtained above and the mixture was incubated at a temperature of 37° C for 1 minute. Then 0.07 ml of an ADP or collagen solution was added to the mixture. The mixture was then subjected to a transmittance determination and changes in the transmittance of the mixture were recorded using aggregometer at a stirrer rotation rate of 1100 rpm. In this test, Auren Beronal buffer (pH 7.35) was used for the preparation of solutions of ADP, collagen and the test compounds. ADP was adjusted to a concentration of 7.5 × 10^-5 M, and the collagen solution was prepared by triturating 100 mg of collagen with 5 ml of the above buffer and the supernatant obtained was used as a collagen inducer. Adenosine and acetylsalicyclic acid were used as controls for the ADP-induced aggregation test and the collagen-induced aggregation test, respectively. The aggregation inhibitory activity was determined in terms of the percent inhibition (%) with respect to the aggregation ratio of controls. The aggregation ratio can be calculated by the following equation: [formula] Wherein: "a" is the optical density of the PRP,
(§4) "b" is the optical density of the PRP having incorporated therein a test compound and an aggregation inducer, and
(§5) "c" is the optical density of the PPP.

[2] = test system: ADP-induced aggregation in rabbit platelet; assay: Inhibition effect on ADP-induced aggregation in rabbit platelet; type: cell-based; conditions: rabbit platelet (PRP); for inhibition at 100 µM / inhibition at 10 µM / inhibition at 1 µM / inhibition at 0.1 µM / inhibition at 0.01 µM: Oryctolagus cuniculus, Platelet; for inhibition at 0.01 µM: 10^-8 M test compound solution
Method: as §1, §2, §3, §4, §5

blood platelets = conditions: at low concentrations; cited from earlier work
thrombosis = conditions: administered orally or intravenously to mammals including humans; cited from earlier work
[3] = Toxicity of benzcycloamide derivatives in mouse (LD50); conditions: in vivo
From the text: All the benzcycloamide derivatives represented by the aforesaid general formulas (I) are novel compounds having excellent platelet aggregation-inhibiting effects and are useful as preventives for thrombosis. […] Compounds tested: [drawing 17]

| SMILES | inhibition at 100 µM [1] [%] | inhibition at 10 µM ([1]; 10^-5 M test compound solution) [%] | inhibition at 1 µM ([1]; 10^-6 M test compound solution) [%] | inhibition at 100 µM ([2]; 10^-4 M test compound solution) [%] | inhibition at 10 µM ([2]; 10^-5 M test compound solution) [%] | inhibition at 1 µM ([2]; 10^-6 M test compound solution) [%] | inhibition at 0.01 µM [1] [%] | other results |
| --- | --- | --- | --- | --- | --- | --- | --- | --- |
| CCCCCOC(=O)CCCOc1ccc2c(c1)CCC(=O)N2 [I] | 48 | 22 | 6 | 82 | 58 | 0 |  | inhibition at 0.1 µM ([2]; 10^-7 M test compound solution): 8% |
| CC(C)(C)NCC(O)COc1cccc2c1CCC(=O)N2 (stereo not drawn) [5-(2'-hydroxy-3-tert-butylamino)-propoxy-3,4-dihydrocarbostyril] |  |  |  |  |  |  |  | inhibition of the aggregation of blood platelets (blood platelets): at low concentrations could specifically inhibit the aggregation of blood platelets; preventing and treating thrombosis (thrombosis): very effective for preventing and treating thrombosis |
| CCOC(=O)C(C)Oc1cccc2c1NC(=O)CC2 (stereo not drawn) [Compound M] | 5 |  | 2 | 3 |  | 11 | 7 | inhibition at 0.01 µM [2]: 11% |
| CCOC(=O)C(C)Oc1ccc2c(c1)CCC(=O)N2C (stereo not drawn) [C] | 36 |  | 0 | 36 |  | 0 | 9 | inhibition at 0.01 µM [2]: 9% |
| CCOC(=O)CCCOc1ccc2c(c1)CCC(=O)N2 [J] |  |  |  |  |  |  |  | Inhibition effect on collagen-induced aggregation ([1]; 10^-5 M test compound solution): 86%; Inhibition effect on collagen-induced aggregation ([1]; 10^-6 M test compound solution): 18%; Inhibition effect on ADP-induced aggregation ([2]; 10^-4 M test compound solution): 100%; Inhibition effect on ADP-induced aggregation ([2]; 10^-5 M test compound solution): 90%; Inhibition effect on ADP-induced aggregation ([2]; 10^-6 M test compound solution): 25%; Inhibition effect on ADP-induced aggregation ([2]; 10^-7 M test compound solution): -4% |
| CCCCCOC(=O)C(C)Oc1ccc2c(c1)CCC(=O)N2 (stereo not drawn) [F] | 88 | 8 | 0 | 100 | 79 | 20 |  |  |
| CCOC(=O)C(C)Oc1ccc2c(c1)NC(=O)CC2 (stereo not drawn) [D] | 2 |  | 8 | -18 |  | 14 | 3 | inhibition at 0.01 µM [2]: 14% |
| O=C(O)CCCCCCOc1ccc2c(c1)CCC(=O)N2 [L] | 15 | 14 | 2 | 13 | 8 | 7 |  | inhibition at 0.1 µM ([2]; 10^-7 M test compound solution): -10% |
| CCOC(=O)CCCOc1ccc2c(c1)CCC(=O)N2 [E] | 92 |  |  | 100 | 97 |  |  | LD50 ([3]; Female mouse): > 1000 mg/kg; LD50 ([3]; Male mouse): > 1000 mg/kg |
| CC(C)OC(=O)C(C)Oc1ccc2[nH]c(=O)ccc2c1 (stereo not drawn) [G] | 55 | 25 | 3 | 74 | 38 | 7 |  |  |
| CCOC(=O)C(C)Oc1ccc2c(c1)CCC(=O)N2 (stereo not drawn) [A] | 71 | 20 | 2 | 57 | 25 | 5 | 0 |  |
| CCOC(=O)CCCCCCOc1ccc2c(c1)CCC(=O)N2 [K] | 31 | 13 | 6 | 37 | 15 | 10 |  | inhibition at 0.1 µM ([2]; 10^-7 M test compound solution): 7%; LD50 ([3]; Female mouse): 500 to 1000 mg/kg; LD50 ([3]; Male mouse): 750 to 1000 mg/kg |
| CCOC(=O)C(C)Oc1ccc2[nH]c(=O)ccc2c1 (stereo not drawn) [B] | 67 | 12 | -6 | 86 | 54 | -6 | 0 | inhibition at 0.01 µM [2]: 14% |
| CCOC(=O)CCCOc1cccc2c1CCC(=O)N2 [H] | 90 | 8 | 5 | 65 | 18 | 2 |  |  |

Reference: US4070470A, “Platelet aggregation inhibiting carbostyrils, their compositions and method of use” (Otsuka Pharmaceutical Co., Ltd., priority 1974, dated 1978)
